# Where two headings read alike, the source gives them in different places.
# How the values were obtained:
# MRP1 [1] = settings: cited from earlier work
# cellular GSH levels = settings: 100 μM, 2 h incubation; cited from earlier work
# CaCo2 cell monolayers = settings: cited from earlier work
# [2] = cited from earlier work
# [3] = rats; cited from earlier work
# BCRP [4] = settings: NHI-H460/MX20, BCRP; cited from earlier work
# MRP1 [5] = settings: cited from earlier work; remark: listed apart in the source
# [6] = human, in vivo; cited from earlier work
# P-gp [7] = settings: MCF7/ADR cells, 100 μM isothiocyanate, 2 h; cited from earlier work
# BCRP [8] = settings: FTC 10 μM, 25 μM PEITC; cited from earlier work
# MRP2 = settings: cited from earlier work
# P-gp [9] = settings: cited from earlier work; for investigated as substrate (S)/inhibitor (I): 8226/Dox, P-gp
# [10] = rat, in vivo, cited from earlier work
# MRP1 [11] = settings: Panc-1 cells, 100 μM isothiocyanate, 2 h; cited from earlier work
# P-gp [12] = settings: verapamil or PSC833; Caco-2, MCF-7/ADR, MDA435/LCC6, MDA435/LCC6MDR1 cells; cited from earlier work
# [13] = rats, cited from earlier work
# [14] = Effect of BITC co-administration on topotecan pharmacokinetics; settings: Sprague-Dawley, rat, plasma
smiles,measurement,setting,value
C=CCN=C=S [Allyl isothiocyanate],investigated as substrate (S)/inhibitor (I),"MRP1 [1]; HL60/AR, MRP1",Allyl isothiocyanate (S)
"S=C=NCc1ccccc1 [BITC, benzyl isothiocyanate]","GSH, % of control values in untreated cells",cellular GSH levels,15.3±6.4 % of control
same,decrease of cellular GSH levels,cellular GSH levels,decreased
same,increase in accumulation of daunomycin,CaCo2 cell monolayers,1.75 fold
CC[C@@]1(O)C(=O)OCc2c1cc1n(c2=O)Cc2cc3c(CNC)c(O)ccc3nc2-1 [N-desmethyl topotecan],percent of N-desmethyl topotecan formed,[2]; in the plasma,less than 0.7%
same,percent of N-desmethyl topotecan formed,[2]; in the urine,1–4%
"S=C=Nc1cccc2ccccc12 [NITC, α-naphthyl isothiocyanate]",Nonlinear pharmacokinetics,[3],Yes
same,decrease of cellular GSH levels,cellular GSH levels,not
"S=C=NCCc1ccccc1 [PEITC, phenethyl isothiocyanate]",investigated as substrate (S)/inhibitor (I),BCRP [4],Phenethyl isothiocyanate (S)
same,change of 14C tracer accumulation by MK571,"MRP1 [5]; 100 μM MK571, higher PEITC concentrations",did not change
same,increase of 14C tracer accumulation by MK571,"MRP1 [5]; 2 h co-incubation with 100 μM MK571, PEITC 1 μM",6.8 fold
same,increase of 14C tracer accumulation by MK571,"MRP1 [5]; 2 h co-incubation with 100 μM MK571, PEITC 5 μM",5.9 fold
same,increase of 14C tracer accumulation by MK571,"MRP1 [5]; 2 h co-incubation with 100 μM MK571, PEITC 20 μM",1.9 fold
same,CL/F,[6],29.5 L/h
same,Cmax,[6],0.928 µM
same,Half-life,[6],4.9 h
same,Tmax,[6],2.6 h
same,increase in accumulation of vinblastine,P-gp [7],not
same,decrease of ATP-dependent accumulation of PEITC in inside-out vesicles by FTC,BCRP [8],1.7 fold
same,"GSH, % of control values in untreated cells",cellular GSH levels,10±3.5 % of control
same,decrease of cellular GSH levels,cellular GSH levels,decreased
same,increase of intracellular 14C accumulation by MK571,"MRP2; 50 μM MK571, PEITC 1 μM",2.5 fold
same,increase of intracellular 14C accumulation by MK571,"MRP2; 50 μM MK571, PEITC 5 μM",3.5 fold
same,increase of intracellular 14C accumulation by MK571,"MRP2; 50 μM MK571, PEITC 10 μM",4.5 fold
same,increase of intracellular 14C accumulation by MK571,"MRP2; 50 μM MK571, PEITC 50 μM",1.8 fold
same,intracellular 14C lower in MDCK/MRP2 than in wild type MDCKII cells,MRP2; PEITC 1 μM,55%
same,intracellular 14C lower in MDCK/MRP2 than in wild type MDCKII cells,MRP2; PEITC 5 μM,14%
same,intracellular 14C lower in MDCK/MRP2 than in wild type MDCKII cells,MRP2; PEITC 10 μM,12%
same,intracellular 14C lower in MDCK/MRP2 than in wild type MDCKII cells,MRP2; PEITC 50 μM,61%
same,investigated as substrate (S)/inhibitor (I),P-gp [9],Phenethyl isothiocyanate (S)
same,clearance,[10]; 2 umol/kg,11.6 mL/min/kg
same,Half-life,"[10]; iv, 66 mg/kg",13.1 h (i.v.)
same,Cmax,"[10]; po, 16.3 mg/kg",42.1 µM
same,Tmax,"[10]; po, 16.3 mg/kg",2.0 h
same,oral bioavailability,[10]; po,high
same,Nonlinear pharmacokinetics,[10],Yes
same,increase in accumulation of daunomycin,CaCo2 cell monolayers,1.85 fold
same,increase in accumulation of vinblastine,MRP1 [11],2 fold
same,accumulation of 14C-PEITC in absence and presence of P-gp inhibitor,P-gp [12],not changed
"C[S+]([O-])CCCCN=C=S (stereo not drawn) [Sulforaphane, sulforaphane]",accumulation of intracellular sulforaphane with inhibitors of MRP1,MRP1 [1]; MRP1 over-expressing cells,increased
same,investigated as substrate (S)/inhibitor (I),P-gp [9],Sulforaphane (S)
same,accumulation of intracellular sulforaphane with inhibitors of P-gp,P-gp [9]; P-gp over-expressing cells,increased
same,Cmax,"[13]; 50 μmol oral (Table 1: 88.5 mg oral), plasma",20 µM
same,Half-life,[13]; 50 μmol oral (Table 1: 88.5 mg oral),2.23 h
same,Half-life,"[13]; 50 μmol oral (Table 1: 88.5 mg oral), listed as sulforaphane",about 2.2 h
same,Tmax,[13]; 88.5 mg oral,4 h
CC[C@@]1(O)C(=O)OCc2c1cc1n(c2=O)Cc2cc3c(CN(C)C)c(O)ccc3nc2-1 [topotecan],AUC(0-inf),"[14]; iv, 1 mg/kg, AUC0–∞, i.v. administration of 1 mg/kg topotecan, four rats",707 ng·h/mL
same,AUC(0-t),"[14]; po, 2 mg/kg, AUC0–720 min, topotecan alone (2 mg/kg dose)",182 ng·h/mL
